From patent US20240270741A1 (Cogent Biosciences, Inc., priority 2023, published 2024)

Molecular target: FGFR2 (Homo sapiens, UniProt P21802)
Experiment: FGFR wild type enzyme assay (HTRF KinEASE-TK), FGFR2
Conditions: Enz FGFR2 (nM), FGFR2 wild type enzyme assay

Chain of FGFR2 (P21802 399-821 limits assumed): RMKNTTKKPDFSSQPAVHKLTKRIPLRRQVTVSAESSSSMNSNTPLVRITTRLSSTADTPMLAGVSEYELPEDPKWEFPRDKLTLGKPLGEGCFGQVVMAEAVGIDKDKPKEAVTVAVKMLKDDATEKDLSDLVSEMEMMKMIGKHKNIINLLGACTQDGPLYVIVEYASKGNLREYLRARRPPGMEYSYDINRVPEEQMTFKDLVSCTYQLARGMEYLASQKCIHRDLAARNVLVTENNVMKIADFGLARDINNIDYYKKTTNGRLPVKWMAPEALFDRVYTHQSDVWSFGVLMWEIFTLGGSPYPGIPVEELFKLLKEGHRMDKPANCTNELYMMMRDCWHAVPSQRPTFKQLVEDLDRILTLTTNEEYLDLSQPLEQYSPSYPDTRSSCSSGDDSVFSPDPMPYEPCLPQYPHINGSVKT

IC50 [nM]	SMILES
2	Cc1c(-c2cc(Sc3ccc(F)cc3C#N)c3c(C#N)cnn3c2)cnn1[C@H]1CCC[C@@H](O)C1 [Example 498, 4-((2-cyano-4-fluorophenyl)thio)-6-(1-((1S,3R)-3-hydroxycyclohexyl)-5-methyl-1H-pyrazol-4-yl)pyrazolo[1,5-a]pyridine-3-carbonitrile]
1	Cc1c(-c2cc(Sc3ccc(F)cc3C#N)c3c(C#N)cnn3c2)cnn1[C@@H]1CCC[C@H](O)C1 [Example 499, 4-((2-cyano-4-fluorophenyl)thio)-6-(1-((1R,3S)-3-hydroxycyclohexyl)-5-methyl-1H-pyrazol-4-yl)pyrazolo[1,5-a]pyridine-3-carbonitrile]
1	C[C@]1(O)CC[C@@H](n2cc(-c3cc(Sc4ccc(F)cc4C#N)c4c(C#N)cnn4c3)cn2)CC1 [Example 500, 4-((2-cyano-4-fluorophenyl)thio)-6-(1-((1s,4s)-4-hydroxy-4-methylcyclohexyl)-1H-pyrazol-4-yl)pyrazolo[1,5-a]pyridine-3-carbonitrile]
1	C[C@]1(O)CC[C@H](n2cc(-c3cc(Sc4ccc(F)cc4C#N)c4c(C#N)cnn4c3)cn2)CC1 [Example 501, 4-((2-cyano-4-fluorophenyl)thio)-6-(1-((1r,4r)-4-hydroxy-4-methylcyclohexyl)-1H-pyrazol-4-yl)pyrazolo[1,5-a]pyridine-3-carbonitrile]
1	C[C@@H](O)C(=O)N1CCC(n2cc(-c3cc(Sc4ccc(F)cc4C#N)c4c(C#N)cnn4c3)cn2)CC1 [Example 502, (R)-4-((2-cyano-4-fluorophenyl)thio)-6-(1-(1-(2-hydroxypropanoyl)piperidin-4-yl)-1H-pyrazol-4-yl)pyrazolo[1,5-a]pyridine-3-carbonitrile]
0.5	C[C@]1(O)CC[C@@H](n2cc(-c3cc(Sc4ccccc4C#N)c4c(C#N)cnn4c3)cn2)CC1 [Example 503, 4-((2-cyanophenyl)thio)-6-(1-((1s,4s)-4-hydroxy-4-methylcyclohexyl)-1H-pyrazol-4-yl)pyrazolo[1,5-a]pyridine-3-carbonitrile]
0.4	C[C@]1(O)CC[C@H](n2cc(-c3cc(Sc4ccccc4C#N)c4c(C#N)cnn4c3)cn2)CC1 [Example 504, 4-((2-cyanophenyl)thio)-6-(1-((1r,4r)-4-hydroxy-4-methylcyclohexyl)-1H-pyrazol-4-yl)pyrazolo[1,5-a]pyridine-3-carbonitrile]
3	CN1CC(n2cc(-c3cc(Sc4ncccc4F)c4c(C#N)cnn4c3)cn2)CCC1=O (centres unmarked) [Example 505, 4-((3-fluoropyridin-2-yl)thio)-6-(1-(1-methyl-6-oxopiperidin-3-yl)-1H-pyrazol-4-yl)pyrazolo[1,5-a]pyridine-3-carbonitrile]
1	CN1CCC(n2cc(-c3cc(Sc4ncccc4F)c4c(C#N)cnn4c3)cn2)CC1=O (centres unmarked) [Example 506, 4-((3-fluoropyridin-2-yl)thio)-6-(1-(1-methyl-2-oxopiperidin-4-yl)-1H-pyrazol-4-yl)pyrazolo[1,5-a]pyridine-3-carbonitrile]
30	N#Cc1nn([C@H]2CCCNC2)cc1-c1cc(Sc2ncccc2F)c2c(C#N)cnn2c1 [Example 507, (S)-6-(3-cyano-1-(piperidin-3-yl)-1H-pyrazol-4-yl)-4-((3-fluoropyridin-2-y)thio)pyrazolo[1,5-a]pyridine-3-carbonitrile]
48	CNC(=O)c1nn([C@H]2CCCNC2)cc1-c1cc(Sc2ncccc2F)c2c(C#N)cnn2c1 [Example 508, (S)-4-(3-cyano-4-((3-fluoropyridin-2-yl)thio)pyrazolo[1,5-a]pyridin-6-yl)-N-methyl-1-(piperidin-3-yl)-1H-pyrazole-3-carboxamide]
22	N#Cc1cnn2cc(-c3cn([C@H]4CCCNC4)c4nccnc34)cc(Sc3ncccc3F)c12 [Example 509, (S)-4-((3-fluoropyridin-2-yl)thio)-6-(5-(piperidin-3-yl)-5H-pyrrolo[2,3-b]pyrazin-7-yl)pyrazolo[1,5-a]pyridine-3-carbonitrile]
1	CC(C)(CO)N1CC[C@H](n2cc(-c3cc(Sc4ncccc4F)c4c(C#N)cnn4c3)cn2)C1 [Example 510, (S)-4-((3-fluoropyridin-2-yl)thio)-6-(1-(1-(1-hydroxy-2-methylpropan-2-yl)pyrrolidin-3-yl)-1H-pyrazol-4-yl)pyrazolo[1,5-a]pyridine-3-carbonitrile]
8	Cc1c(-c2cc(Sc3ccc(F)cc3C#N)c3c(C#N)cnn3c2)cnn1CCO [Example 511, 4-((2-cyano-4-fluorophenyl)thio)-6-(1-(2-hydroxyethyl)-5-methyl-1H-pyrazol-4-yl)pyrazolo[1,5-a]pyridine-3-carbonitrile]
1	Cc1c(-c2cc(Sc3ccc(F)cc3C#N)c3c(C#N)cnn3c2)cnn1[C@H]1CCCN(C(=O)[C@@H](C)O)C1 [Example 512, 4-((2-cyano-4-fluorophenyl)thio)-6-(1-((S)-1-((R)-2-hydroxypropanoyl)piperidin-3-yl)-5-methyl-1H-pyrazol-4-yl)pyrazolo[1,5-a]pyridine-3-carbonitrile]
1	CS(=O)(=O)N1CCC(n2cc(-c3cc(Sc4ccccc4C#N)c4c(C#N)cnn4c3)cn2)CC1 [Example 513, 4-((2-cyanophenyl)thio)-6-(1-(1-(methylsulfonyl)piperidin-4-yl)-1H-pyrazol-4-yl)pyrazolo[1,5-a]pyridine-3-carbonitrile]

IC50 [nM]	SMILES
1	CS(=O)(=O)N1CCC[C@H](n2cc(-c3cc(Sc4ccccc4C#N)c4c(C#N)cnn4c3)cn2)C1 [Example 514, (S)-4-((2-cyanophenyl)thio)-6-(1-(1-(methylsulfonyl)piperidin-3-yl)-1H-pyrazol-4-yl)pyrazolo[1,5-a]pyridine-3-carbonitrile]
1	CN1CCC[C@H](n2cc(-c3cc(Sc4ccccc4C#N)c4c(C#N)cnn4c3)cn2)C1 [Example 515, (S)-4-((2-cyanophenyl)thio)-6-(1-(1-methylpiepridin-3-yl)-1H-pyrazol-4-yl)pyrazolo[1,5-a]pyridine-3-carbonitrile]
0.4	CC(=O)N1CCC[C@H](n2cc(-c3cc(Sc4ccccc4C#N)c4c(C#N)cnn4c3)cn2)C1 [Example 516, (S)-6-(1-(1-acetylpiperidin-3-yl)-1H-pyrazol-4-yl)-4-((2-cyanophenyl)thio)pyrazolo [1,5-a]pyridine-3-carbonitrile]
0.4	N#Cc1ccccc1Sc1cc(-c2cnn([C@H]3CCCN(C(=O)CO)C3)c2)cn2ncc(C#N)c12 [Example 517, (S)-4-((2-cyanophenyl)thio)-6-(1-(1-(2-hydroxyacetyl)piperidin-3-yl)-1H-pyrazol-4-yl)pyrazolo[1,5-a]pyridine-3-carbonitrile]
0.4	N#Cc1ccccc1Sc1cc(-c2cnn([C@H]3CCCC[C@@H]3O)c2)cn2ncc(C#N)c12 [Example 518, 4-((2-cyanophenyl)thio)-6-(1-((1S,2S)-2-hydroxycyclohexyl)-1H-pyrazol-4-yl)pyrazolo[1,5-a]pyridine-3-carbonitrile]
1	N#Cc1ccccc1Sc1cc(-c2cnn([C@@H]3CCCC[C@H]3O)c2)cn2ncc(C#N)c12 [Example 519, 4-((2-cyanophenyl)thio)-6-(1-((1R,2R)-2-hydroxycyclohexyl)-1H-pyrazol-4-yl)pyrazolo[1,5-a]pyridine-3-carbonitirle]
0.4	CC(=O)N1CCCC(n2cc(-c3cc(Sc4ccccc4C#N)c4c(C#N)cnn4c3)cn2)CC1 (centres unmarked) [Example 520, 6-(1-(1-acetylazepan-4-yl)-1H-pyrazol-4-yl)-4-((2-cyanophenyl)thio)pyrazolo [1,5-a]pyridine-3-carbonitrile]
2	N#Cc1cnn2cc(-c3cnn(CCCO)c3)cc(Sc3ncccc3F)c12 [Example 521, 4-((3-fluoropyridin-2-yl)thio)-6-(1-(3-hydroxypropyl)-1H-pyrazol-4-yl)pyrazolo[1,5-a]pyridine-3-carbonitrile]
2	N#Cc1cnn2cc(-c3cnn(C[C@@H](O)CO)c3)cc(Sc3ncccc3F)c12 [Example 522, (R)-6-(1-(2,3-dihydroxypropyl)-1H-pyrazol-4-yl)-4-((3-fluoropyridin-2-yl)thio)pyrazolo[1,5-a]pyridine-3-carbonitrile]
2	N#Cc1cnn2cc(-c3cnn(C[C@H](O)CO)c3)cc(Sc3ncccc3F)c12 [Example 523, (S)-6-(1-(2,3-dihydroxypropyl)-1H-pyrazol-4-yl)-4-((3-fluoropyridin-2-yl)thio)pyrazolo[1,5-a]pyridine-3-carbonitrile]
3	N#Cc1cnn2cc(-c3cnn(C(CO)CO)c3)cc(Sc3ncccc3F)c12 [Example 524, 6-(1-(1,3-dihydroxypropan-2-yl)-1H-pyrazol-4-yl)-4-((3-fluoropyridin-2-yl)thio)pyrazolo[1,5-a]pyridine-3-carbonitrile]
1	N#Cc1ccccc1Sc1cc(-c2cnn(C(CO)CO)c2)cn2ncc(C#N)c12 [Example 525, 4-((2-cyanophenyl)thio)-6-(1-(1,3-dihydroxypropan-2-yl)-1H-pyrazol-4-yl)pyrazolo[1,5-a]pyridine-3-carbonitrile]
1	N#Cc1ccccc1Sc1cc(-c2ccc(N3CCNCC3)nc2)cn2ncc(C#N)c12 [Example 526, 4-((2-cyanophenyl)thio)-6-(6-(piperazin-1-yl)pyridin-3-yl)pyrazolo[1,5-a]pyridine-3-carbonitrile]
0.4	CN1CCN(c2ccc(-c3cc(Sc4ccccc4C#N)c4c(C#N)cnn4c3)cn2)CC1 [Example 527, 4-((2-cyanophenyl)thio)-6-(6-(4-methylpiperazin-1-yl)pyridin-3-yl)pyrazolo[1,5-a]pyridine-3-carbonitrile]
2.5	Cc1c(-c2cc(Sc3ccc(F)cc3C#N)c3c(C#N)cnn3c2)cnn1[C@@H]1CCC(C)(C)NC1 [Example 528, 4-(2-cyano-4-fluoro-phenyl)sulfanyl-6-[1-[(3R)-6,6-dimethyl-3-piperidyl]-5-methyl-pyrazol-4-yl]pyrazolo[1,5-a]pyridine-3-carbonitrile]
69	N#Cc1cnn2cc(-c3cn([C@H]4CCCNC4)nc3CO)cc(Sc3ncccc3F)c12 [Example 530, 4-[(3-fluoro-2-pyridyl)sulfanyl]-6-[3-(hydroxymethyl)-1-[(3S)-3-piperidyl]pyrazol-4-yl]pyrazolo[1,5-a]pyridine-3-carbonitrile]
